SMILES strings stand for the structures. pIC50: −log10 of the molar value.

This note sets out measurements from ChEMBL document CHEMBL1143561, “Virtual docking approaches to protein kinase B inhibition” (J Med Chem, 2005).

In the experiment the target is RAC-alpha serine/threonine-protein kinase (Homo sapiens, UniProt P31749). Kind of experiment: Inhibition of protein kinase B alpha (Akt1) in fluorescent enzymatic assay.
Sequence of RAC-alpha serine/threonine-protein kinase (P31749 whole entry): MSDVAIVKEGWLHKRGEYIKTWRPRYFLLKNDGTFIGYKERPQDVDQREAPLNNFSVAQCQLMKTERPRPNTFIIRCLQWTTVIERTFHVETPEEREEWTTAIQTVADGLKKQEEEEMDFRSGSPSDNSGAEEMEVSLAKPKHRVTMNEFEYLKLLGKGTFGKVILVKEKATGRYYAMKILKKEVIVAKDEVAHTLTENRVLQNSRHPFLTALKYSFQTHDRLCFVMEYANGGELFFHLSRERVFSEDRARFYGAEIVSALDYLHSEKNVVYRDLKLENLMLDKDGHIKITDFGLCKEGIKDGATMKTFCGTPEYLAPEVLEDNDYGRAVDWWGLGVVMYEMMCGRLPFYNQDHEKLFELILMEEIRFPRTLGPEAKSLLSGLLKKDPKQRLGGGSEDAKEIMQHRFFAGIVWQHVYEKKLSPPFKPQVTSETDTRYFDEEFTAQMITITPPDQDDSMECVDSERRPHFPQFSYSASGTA

As to `CC1=C(C#N)c2nc(N)c(C#N)c(C)c2/C1=C/c1ccc(-c2cccc(C(=O)O)c2)o1`, the pIC50 is 4.22.
